In patent publication US20130202614A1, “AUTOTAXIN PATHWAY MODULATION AND USES THEREOF” (B.S.R.C. "ALEXANDER FLEMING", priority 2010, published 2013):

Legend:
Type in all cases: cell-based, mouse
primary SFs [1] = experiment: Synovial fibroblast proliferation assay ([3H]thymidine incorporation); conditions: for LPA responses of wt SFs (LPA-induced proliferation): pre-treated with inhibitor prior to LPA stimulation
Protocol: Primary SFs were isolated from 6-8 week old mice as previously described. Briefly, mouse joint specimens were minced and digested with type IV collagenase. The released cells were grown in Dulbecco's modified Eagle's medium (DMEM) supplemented with fetal bovine serum (FBS) and penicillin-streptomycin. Isolated fibroblasts adhered on culture dishes were maintained under standard conditions (37° C. and 5% CO2) and used for the experiments between the third and fifth passages.
Cells were starved with serum-free medium before treatment due to the presence of lysophospholipids in the serum Starvation medium is supplemented with 0.2% fatty-acid-free BSA. After routine starvation, cells were stimulated with various concentrations of the tested compounds (LPA, LPC, S1P or TNF) as indicated in details below. Where indicated cells were pre-treated with the inhibitors of ERK MAPK, p38 MAPK, JNK and Rho kinase for 3 hours prior to LPA stimulation. At the moment of cell treatment, the culture medium was replaced with fresh serum-free medium containing various concentrations of the tested compounds.
Preconfluent cell cultures were starved overnight, incubated for 24 h with LPA and the rest tested compounds and finally exposed to 0.5 μCi/ml of [^3H]thymidine. Cells were then washed, harvested by trypsinization and blotted on a membrane. The radioactivity of incorporated [^3H]-thymidine was determined by liquid scintillation counting.

primary SFs [2] = experiment: SF proinflammatory cytokine secretion (multiplex Luminex ELISA); conditions: especially IL-6
BDM macrophages = experiment: BMDM cytokine secretion (Luminex); conditions: upon LPA stimulation
primary SFs [3] = experiment: SF cell migration assay (Boyden chambers); conditions: LPA stimulation
Protocol: Modified Boyden chambers with 8-μm pores (Corning/Costar) were used where the lower surface of the membrane was coated with 10 μg/ml human fibronectin for 2 hours at 37° C. Cells were harvested with trypsin/EDTA, washed with PBS, and resuspended to 1×10^6 cells per ml. The suspension was added to the upper chamber, and the cells were allowed to migrate at 37° C., 5% CO2, for 4 hours. Non-migratory cells were removed from the upper surface of the membrane while migratory cells in the lower compartment of the chambers were washed with PBS and stained with 0.2% crystal violet in 10% ethanol for 10 min. After extensive washing in H2O, the cells were lysed and absorbance was measured at 570 nm with a SPECTRAmax photometer.

primary SFs [4] = experiment: MMP production by SFs (RT-PCR); conditions: MMP-9
Protocol: Total RNA was extracted from subconfluent cultured SFs with the TRIzol reagent (Invitrogen Ltd, Paisley, PA4 9RF, UK Carlsbad, Calif. 92008) according to the manufacturer's instructions. RNA yield and purity were determined spectrophotometrically at 260/280 nm. cDNA synthesis was performed using the MMLV reverse transcriptase (Promega, Madison, Wis., United States Madison, Wis. 53711 USA). In all cases the normalization was performed in relation to the B2m internal control.
SQ PCR was performed by 20-27 cycles of denaturation at 95° C. for 30 s, annealing at 56-60° C. (depending on the Tm of each individual set of primers) for 30 s, and extension at 72° C. for 1 min, in a final volume of 20 μl. The products were separated by electrophoresis on 1.5% agarose gel and stained with ethidium bromide. […] Quantitative real-time PCR was performed using the iCycler Iq Real-Time detection system and the IQ SYBR Green Supermix (Bio-Rad Laboratories, Hercules, Calif., United States), according to the manufacturer's instructions, for one cycle of 95° C. for 3 min, and 42 cycles of denaturation at 95° C. for 30 s and annealing at 56-58° C. for 45 s. […]

primary SFs [5] = experiment: SF actin cytoskeleton rearrangement (phalloidin F-actin staining); conditions: phaloidin-F-actin staining
Protocol: Cells were cultured on glass coverslips, grown in the presence of serum to subconfluence, and starved for 24 h by replacing the medium with serum-free medium containing 0.1% bovine serum albumin. Then the cells were treated with LPA and other components in serum-free medium for 4 h, fixed with 4% PFA and stained for F-actin with TRITC-conjugated phalloidin according to the manufacturer's protocol.

BMD macrophages = experiment: Macrophage proliferation upon LPA addition; conditions: primary cultures
primary SFs [6] = experiment: SF adhesion assay (fibronectin); conditions: LPA stimulation
Protocol: This assay was performed on plates coated with human fibronectin. Briefly, cells were allowed to adhere to the substrate, and unbound cells were removed with sequential washes with PBS. Adhered cells were then stained with crystal violet, solubilized, and their absorbance was determined at 570 nm. The experiment was performed in triplicates.

Compound: C[S+]([O-])c1ccc(-c2nc(-c3ccncc3)c(-c3ccc(F)cc3)[nH]2)cc1 (centres unmarked) [SB203580]
- LPA responses of wt SFs (LPA-induced proliferation) (primary SFs [1]): inhibited

Compound: 1-oleoyl-LPA (18:1)
- proinflammatory cytokine secretion from SFs (primary SFs [2]): stimulated proinflammatory cytokine secretion
- cytokine secretion from BDM macrophages (BDM macrophages): No differences
- SF migration (primary SFs [3]): increased
- production of matrix metaloproteinases (MMPs) by SFs (primary SFs [4]): stimulated
- SF actin cytoskeleton (primary SFs [5]): rearrangements of their actin cytoskeleton
- proliferation of macrophages (BMD macrophages): no effects
- proliferation of wt SFs (primary SFs [1]; 3H-thymidine incorporation): stimulated the proliferation
- synergy with TNF on SF proliferation (primary SFs [1]; different concentrations of LPA and/or TNF): synergizes with TNF
- SF adhesion (primary SFs [6]): increased

Compound: COc1cccc(-c2cc(=O)c3ccccc3o2)c1N [PD98059]
- LPA responses of wt SFs (LPA-induced proliferation) (primary SFs [1]): inhibited

Compound: C[C@@H](N)[C@H]1CC[C@H](C(=O)Nc2ccncc2)CC1 [Hybridoma Y27632]
- LPA responses of wt SFs (LPA-induced proliferation) (primary SFs [1]): inhibited

Compound: CCCCCCCC/C=C\CCCCCCCC(=O)OC[C@@H](O)COP(=O)([O-])OCC[N+](C)(C)C [LPC, 1-oleoyl-LPC (18:1)]
- proliferation of mRA SFs (primary SFs [1]; 3H-thymidine incorporation): did stimulate the proliferation
- proliferation of wt SFs (primary SFs [1]; 3H-thymidine incorporation): no effects
